A short description of one data set: solubility in water. Format: physicochemical. To be noted: except at low or high pH conditions. An excerpt: Zwitterionic character may be inherent to the compound, and may impart desirable properties such as poor systemic absorption and sustained local affect on the gut following oral administration.
Data set [1] has as its system effect of intravenous morphine sulfate on upper gastrointestinal motility. The data set can be described thus: Phase I study in healthy volunteers with intravenous morphine sulfate. It counts as in vivo, humans. The conditions noted are these: 4 mg oral dose.
Data set [2] concerns morphine-induced constipation in mice. As to the kind of experiment: mouse model of opioid-induced constipation (charcoal meal transit time). Format: in vivo. The source says:
This establishes that the compound of formula (II) is a gut-selective and peripherally-selective mu antagonist compound. In addition, it is orally effective in preventing or reversing morphine-induced constipation in mice.

Data set [3] deals with postsurgical opioid effects, postoperative nausea and vomiting. As to the kind of experiment: Phase II clinical study, partial colectomy or hysterectomy, postoperative nausea and vomiting (VAS). It counts as in vivo, humans. The conditions noted are these: for patients reporting VAS nausea scores over 20 / patients exhibiting no nausea (highest VAS score=0): postoperative morphine or meperidine. As for the experimental part: A 78 patient Phase II clinical study was conducted which compared two doses (2 mg and 12 mg) of the compound of formula (II) versus placebo in patients undergoing partial colectomy or simple or radical hysterectomy surgical procedures. All patients in this clinical study received morphine or meperidine infusions to treat postoperative pain. Oral doses of compound (II) or placebo were administered to block postsurgical opioid effects, including postoperative nausea and vomiting. Results of this study comparing patients receiving 12 mg of compound (II) and placebo are depicted graphically in FIGS. 2A and 2B.
The intensity of nausea was evaluated by patients on a 100-point visual analog scale (VAS) with VAS=0 being no nausea and VAS=100 being the worst nausea that a patient could imagine. The highest VAS nausea score (worst nausea) recorded for each patient was computed and the distributions of these maximum values were compared among the treatment groups. […] The overall treatment differences in the distributions were significant when compared using a Kruskal-Wallis test (P=0.0184). The improved outcomes observed in the 12 mg per day dose group are evident in the pairwise comparisons based on the Wilcoxon rank sum tests.

Data set [4] deals with analgesia and pupil constriction produced by intravenous morphine sulfate. As to the kind of experiment: Phase II clinical study, third molar extraction dental surgery, intravenous morphine sulfate. Format: in vivo, humans. To be noted: 4 mg total oral dose.
Data set [5] has as its system loperamide-induced slowing of gut motility. The data set can be described thus: clinical crossover study of loperamide-induced slowing of gut motility (colonic transit time). The conditions noted are these: man, 8 mg b.i.d. oral loperamide. Format: in vivo. As for the experimental part: A clinical study in man was an 8 subject multiple crossover study of the effects of oral pre-treatment with placebo, 2.4 mg or 24 mg t.i.d. of the compound of formula (II) on slowing of gut motility induced with 8 mg of b.i.d. of oral loperamide (a peripheral mu opioid agonist). […] The graph presents the effects of 2.4 or 24 mg of the compound of formula (II) on colonic transit time (in hours) following administration of loperamide. The loperamide dose was constant in the three treatment groups.

Data set [6] has as its system inhibition of gastrointestinal transit produced by MS Contin. The data set can be described thus: Phase I study in volunteers with oral sustained-release morphine (MS Contin). Format: in vivo, humans. The conditions noted are these: 3 mg oral three times daily for 4 days, MS Contin 30 mg twice daily. The source says:
Pupil size was used as a surrogate measure of the morphine's analgesic activity.

Data set [7] has as its system opioid-induced nausea and pruritus. To be noted: Yuan, C.-S. et al. Drug and Alcohol Dependence 1998, 52, 161; cited from earlier work.

With `C[C@H]1CN(C[C@H](Cc2ccccc2)C(=O)NCC(=O)O)CCC1(C)c1cccc(O)c1` (some centres unmarked) [compound of formula (II)], in “solubility in water”, the solubility in water entry is recorded as “low solubility in water”. The “effect of intravenous morphine sulfate on upper gastrointestinal motility” value in data set [1] (P<0.01) was “blocked the effect of intravenous morphine sulfate on upper gastrointestinal motility”. The morphine-induced nausea result in data set [1] (P=0.07) is “trend toward antagonizing morphine-induced nausea”. In addition, the “reversal of morphine-induced constipation” value in data set [2] (chronic morphine treated mice) was “even more potent in reversing morphine-induced constipation”. In addition, the “prevention of acute morphine-induced constipation (charcoal meal transit time)” value in data set [2] (mice, orally administered) is “prevented acute morphine-induced constipation”. Further, in data set [3] (2 mg and 12 mg oral doses), the “reduction in postoperative pain control” value is recorded as “None of the patients” and the “serious adverse side effects judged related to the compound” value is given as “No patients experienced serious adverse side effects”. In data set [3] (2 mg dose group), the “patients reporting VAS nausea scores over 20” value came to 67%. Moreover, the “patients exhibiting no nausea (highest VAS score=0)” value in data set [3] (2 mg per day oral) is listed as “approximately 25%”. In data set [3] (12 mg per day oral), the “patients exhibiting no nausea (highest VAS score=0)” value is approximately 40% and the “patients reporting VAS nausea scores over 20” value was determined as 27%. Moreover, the “distribution of highest VAS nausea score compared to placebo” value in data set [3] (12 mg per day, Wilcoxon rank sum test, P=0.0072) is recorded as “statistically significantly improved”. The “patients withdrawn for adverse effects” value in data set [4] is listed as “No patients were withdrawn for adverse effects”. In addition, in data set [4] (patients), the “antagonism of analgesia produced by intravenous morphine sulfate” value is given as “did not antagonize” and the “antagonism of pupil constriction produced by intravenous morphine sulfate” value is “did not antagonize”. The “loperamide-induced slowing of gut motility (colonic transit time)” value in data set [5] (2.4 mg t.i.d. oral pre-treatment) was “prevented loperamide-induced slowing of gut motility”. In addition, the “loperamide-induced slowing of gut motility (colonic transit time)” value in data set [5] (24 mg t.i.d. oral pre-treatment) is “prevented loperamide-induced slowing of gut motility”. In data set [6], the “MS Contin effects on pupil size (surrogate of analgesic activity)” value was “without antagonizing MS Contin® effects on pupil size” and the “inhibition of gastrointestinal transit produced by oral sustained-release morphine” value is “blocked the inhibition of gastrointestinal transit”.

For `C[N@+]1(CC2CC2)CC[C@]23c4c5ccc(O)c4O[C@H]2C(=O)CC[C@@]3(O)[C@H]1C5` [methylnaltrexone], in data set [7], the “incidence of opioid-induced nausea and pruritus” value was “effectively reduce the incidence of opioid-induced nausea and pruritus”.

Source of the values: patent US6451806B2, “Methods and compositions involving opioids and antagonists thereof” (Adolor Corporation, priority 1999, dated 2002).
